Experimental findings from patent publication US20040024024A1, “Aromatic sulfone hydroxamates and their use as protease inhibitors” (priority 2001, published 2004) are described below.

Structures can show the parent of a compound that is named as a salt.

One may read the IC50 as the midpoint of a concentration-inhibition curve.

Format in all cases: biochemical
Experiment [1] concerns the target T1, Human recombinant MMP-2 (Homo sapiens, UniProt P08253).
T1 construct: made in house; host or cells: MMP-2-transfected p2AHT2 cells
T1 sequence (P08253 110-660): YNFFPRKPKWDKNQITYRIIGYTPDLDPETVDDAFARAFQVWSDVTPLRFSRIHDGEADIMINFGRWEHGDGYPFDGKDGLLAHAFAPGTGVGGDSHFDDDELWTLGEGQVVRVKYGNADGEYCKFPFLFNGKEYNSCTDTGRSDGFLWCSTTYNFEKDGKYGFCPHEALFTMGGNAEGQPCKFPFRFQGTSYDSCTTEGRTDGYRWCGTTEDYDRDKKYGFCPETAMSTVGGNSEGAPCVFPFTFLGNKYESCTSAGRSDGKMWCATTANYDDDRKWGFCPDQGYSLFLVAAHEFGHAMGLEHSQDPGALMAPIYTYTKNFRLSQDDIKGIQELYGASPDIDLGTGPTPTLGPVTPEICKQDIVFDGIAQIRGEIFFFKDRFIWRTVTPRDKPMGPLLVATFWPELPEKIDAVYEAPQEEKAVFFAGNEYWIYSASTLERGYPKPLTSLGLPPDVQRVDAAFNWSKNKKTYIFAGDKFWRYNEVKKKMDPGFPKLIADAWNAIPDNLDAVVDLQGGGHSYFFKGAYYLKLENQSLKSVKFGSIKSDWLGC
Description: In vitro MMP inhibition, Ki determination (fluorogenic substrate II). The conditions noted are these: substrate (II) 4 μM, 1 hr room temperature; apparent Ki, values in parenthesis.

The next experiment has as its target T2, Human recombinant MMP-9 (Homo sapiens, UniProt P14780).
T2 construct: made in house; host or cells: MMP-9-transfected HT1080 cells (spent media)
Description: In vitro MMP inhibition, IC50 determination (fluorogenic substrate I). The conditions noted are these: substrate (I) 4 μM, room temperature; values not in parenthesis. The method, boiled down: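 MMP-9 proenzyme purified from transfected HT1080 cell media, activated with APMA or trypsin. Compound dilutions in pH 7.5 Tris/NaCl/CaCl2 buffer with 0.05% polyoxyethylene 23 lauryl ether, incubated at room temperature with 4 μM MCA/Dpa substrate I. IC50 from fluorescence loss (ex 328, em 415 nm) versus inhibitor concentration.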

Experiment [2] has as its target T1, Human recombinant MMP-2. The experiment is described as above. Particulars: substrate (I) 4 μM, room temperature; values not in parenthesis. The method, boiled down: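 APMA- or trypsin-activated recombinant MMP-2 was incubated at room temperature with serial inhibitor dilutions in Tris buffer pH 7.5 (100 mM NaCl, 10 mM CaCl2, 0.05% Brij), with DMSO from 1% stocks, and 4 μM substrate I. Cleavage was read by fluorescence at 328/415 nm; IC50 was taken from the loss of fluorescence versus inhibitor concentration.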

T2 sequence (P14780 107-707 limits assumed): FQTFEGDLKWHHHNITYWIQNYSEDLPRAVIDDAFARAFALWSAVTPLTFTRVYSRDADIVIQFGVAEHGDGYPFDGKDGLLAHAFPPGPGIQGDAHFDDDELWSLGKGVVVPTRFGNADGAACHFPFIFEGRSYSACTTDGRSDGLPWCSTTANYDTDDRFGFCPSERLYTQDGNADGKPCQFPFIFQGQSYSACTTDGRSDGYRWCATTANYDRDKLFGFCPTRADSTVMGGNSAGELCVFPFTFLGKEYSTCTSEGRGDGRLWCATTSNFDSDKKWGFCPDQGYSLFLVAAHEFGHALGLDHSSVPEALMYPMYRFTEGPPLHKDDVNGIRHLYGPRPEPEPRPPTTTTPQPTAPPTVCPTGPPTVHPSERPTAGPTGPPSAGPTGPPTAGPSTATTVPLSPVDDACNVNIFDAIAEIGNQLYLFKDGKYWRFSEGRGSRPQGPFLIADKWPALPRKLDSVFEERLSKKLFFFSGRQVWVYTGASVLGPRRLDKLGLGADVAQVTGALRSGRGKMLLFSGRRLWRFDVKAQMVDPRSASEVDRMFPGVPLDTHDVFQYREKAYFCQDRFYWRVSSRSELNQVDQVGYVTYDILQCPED

For `CCN1CCC(C(=O)NO)(S(=O)(=O)c2ccc(OCCCc3nc(-c4ccc(OC(F)(F)F)cc4)no3)cc2)CC1` [Example 41, 1-ethyl-N-hydroxy 4-{[4-(3-{3-[4-(trifluoromethoxy)phenyl]-1,2,4-oxadiazol-5-yl}propoxy)phenyl]sulfonyl}piperidine-4-carboxamide Hydrochloride], the Ki on Human recombinant MMP-2 [1] is 415 nM. The IC50 stood at 1600 nM on Human recombinant MMP-9 and 357 nM at Human recombinant MMP-2 [2].
